Data reported in patent US8541460B2, “PDK-1/Akt signaling inhibitors” (The Ohio State University, priority 2003, dated 2013).

Columns and labels:
COX-2 = COX-2 (Homo sapiens, UniProt P35354); assay: COX-2 inhibitory activity; type: biochemical; conditions: concentrations up to 50 μM
M14 = assay: NCI DTP cell line screen (SRB), Melanoma; type: cell-based
Procedure: (§1) Screening of compounds 70 and 71 against several cancer cell lines The human tumor cell lines of the cancer screening panel are grown in RPMI 1640 medium containing 5% fetal bovine serum and 2 mM L-glutamine. For a typical screening experiment, cells are inoculated into 96 well microtiter plates in 100 μL at plating densities ranging from 5,000 to 40,000 cells/well depending on the doubling time of individual cell lines. After cell inoculation, the microtiter plates are incubated at 37° C., 5% CO2, 95% air and 100% relative humidity for 24 h prior to addition of experimental drugs.
(§2) After 24 h, two plates of each cell line are fixed in situ with TCA, to represent a measurement of the cell population for each cell line at the time of drug addition (Tz). Experimental drugs are solubilized in dimethyl sulfoxide at 400-fold the desired final maximum test concentration and stored frozen prior to use. At the time of drug addition, an aliquot of frozen concentrate is thawed and diluted to twice the desired final maximum test concentration with complete medium containing 50 μg/ml gentamicin. Additional four, 10-fold or ½ log serial dilutions are made to provide a total of five drug concentrations plus control. Aliquots of 100 μl of these different drug dilutions are added to the appropriate microtiter wells already containing 100 μl of medium, resulting in the required final drug concentrations.
(§3) Following drug addition, the plates are incubated for an additional 48 h at 37° C., 5% CO2, 95% air, and 100% relative humidity. For adherent cells, the assay is terminated by the addition of cold TCA. Cells are fixed in situ by the gentle addition of 50 μl of cold 50% (w/v) TCA (final concentration, 10% TCA) and incubated for 60 minutes at 4° C. The supernatant is discarded, and the plates are washed five times with tap water and air dried. Sulforhodamine B (SRB) solution (100 μl) at 0.4% (w/v) in 1% acetic acid is added to each well, and plates are incubated for 10 minutes at room temperature. After staining, unbound dye is removed by washing five times with 1% acetic acid and the plates are air dried. Bound stain is subsequently solubilized with 10 mM trizma base, and the absorbance is read on an automated plate reader at a wavelength of 515 nm. For suspension cells, the methodology is the same except that the assay is terminated by fixing settled cells at the bottom of the wells by gently adding 50 μl of 80% TCA (final concentration, 16% TCA). Using the seven absorbance measurements [time zero, (Tz), control growth, (C), and test growth in the presence of drug at the five concentration levels (Ti)], the percentage growth is calculated at each of the drug concentrations levels. Percentage growth inhibition is calculated as: [(Ti−Tz)/(C−Tz)]×100 for concentrations for which Ti>/=Tz [(Ti−Tz)/Tz]×100 for concentrations for which Ti<Tz
(§4) Three dose response parameters are calculated for each experimental agent. […] The drug concentration resulting in total growth inhibition (TGI) is calculated from Ti=Tz. […] Values are calculated for each of these three parameters if the level of activity is reached; however, if the effect is not reached or is exceeded, the value for that parameter is expressed as greater or less than the maximum or minimum concentration tested.
(§5) The methods described were used to test compounds 70 and 71 on a panel of sixty cell lines under a screening service provided by the Developmental Therapeutics Program at the National Institutes of Health. Shown in FIG. 1C are 1, RPMI-8226 leukemia cells; 2; NCI-H322M non-small cell lung cancer cells; 3, HT29 colon cancer cells; 4, U251 CNS cancer cells; 5, SK-MEL-28 melanoma cancer cells; 6, SK-OV-3 ovarian cancer cells; 7, RXF 393 renal cancer cells; 8, PC-3 prostate cancer cells; 9, MDA-MB-231 breast cancer cells.

SK-MEL-28 = assay: NCI DTP cell line screen (SRB), Melanoma; type: cell-based
Procedure: as §1, §2, §3, §4, §5

SK-MEL-2 = assay: NCI DTP cell line screen (SRB), Melanoma; type: cell-based
Procedure: as §1, §2, §3, §4, §5

LOX IMVI = assay: NCI DTP cell line screen (SRB), Melanoma; type: cell-based
Procedure: as §1, §2, §3, §4, §5

PC-3 = assay: NCI DTP cell line screen (SRB), Prostate Cancer; type: cell-based
Procedure: as §1, §2, §3, §4, §5

DU-145 = assay: NCI DTP cell line screen (SRB), Prostate Cancer; type: cell-based
Procedure: as §1, §2, §3, §4, §5

CCRF-CEM = assay: NCI DTP cell line screen (SRB), Leukemia; type: cell-based
immunoprecipitated Akt = assay: Direct inhibition of immunoprecipitated Akt kinase activity; type: biochemical, human
SK-OV-3 = assay: NCI DTP cell line screen (SRB), Ovarian Cancer; type: cell-based, human
Procedure: as §1, §2, §3, §4, §5

[1] = read-out: LC50 (the source's name)

COX-2, sequence (P35354 18-604): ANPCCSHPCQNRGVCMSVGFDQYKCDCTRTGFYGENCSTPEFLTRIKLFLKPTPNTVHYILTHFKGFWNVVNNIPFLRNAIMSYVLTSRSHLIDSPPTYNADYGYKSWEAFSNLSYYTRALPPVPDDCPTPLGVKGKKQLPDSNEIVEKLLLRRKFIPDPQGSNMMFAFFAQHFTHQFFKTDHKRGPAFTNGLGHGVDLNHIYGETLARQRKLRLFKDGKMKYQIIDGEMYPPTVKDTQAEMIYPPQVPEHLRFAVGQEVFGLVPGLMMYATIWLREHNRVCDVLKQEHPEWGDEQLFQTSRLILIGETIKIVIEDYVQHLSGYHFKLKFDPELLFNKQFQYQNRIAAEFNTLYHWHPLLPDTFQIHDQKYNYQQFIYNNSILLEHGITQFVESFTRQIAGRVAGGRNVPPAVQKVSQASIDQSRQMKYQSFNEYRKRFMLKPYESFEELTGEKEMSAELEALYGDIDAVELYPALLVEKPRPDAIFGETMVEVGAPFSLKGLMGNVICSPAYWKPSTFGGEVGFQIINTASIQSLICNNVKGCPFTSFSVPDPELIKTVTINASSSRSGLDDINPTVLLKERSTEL

## NCC(=O)Nc1ccc(-n2nc(C(F)(F)F)cc2-c2ccc3c(ccc4ccccc43)c2)cc1 [Compound 70, 2-Amino-N-{4-[5-(2-phenanthrenyl)-3-(trifluoromethyl)-1H-pyrazol-1-yl]-phenyl}-acetamide]
COX-2
  COX-2 inhibitory activity: nor was any measurable COX-2 inhibitory activity detected
M14
  TGI: 5.37E−06
M14; Log10 Concentration −4.0
  Percent Growth: −19%
M14; Log10 Concentration −5.0
  Percent Growth: −33%
M14; Log10 Concentration −6.0
  Percent Growth: 90%
M14; Log10 Concentration −7.0
  Percent Growth: 98%
M14; Log10 Concentration −8.0
  Percent Growth: 98%
SK-MEL-28
  TGI: 2.64E−06
SK-MEL-28; Log10 Concentration −4.0
  Percent Growth: −59%
SK-MEL-28; Log10 Concentration −5.0
  Percent Growth: −87%
SK-MEL-28; Log10 Concentration −6.0
  Percent Growth: 63%
SK-MEL-28; Log10 Concentration −7.0
  Percent Growth: 83%
SK-MEL-28; Log10 Concentration −8.0
  Percent Growth: 94%
SK-MEL-2
  TGI: 5.40E−06
SK-MEL-2; Log10 Concentration −4.0
  Percent Growth: −28%
SK-MEL-2; Log10 Concentration −5.0
  Percent Growth: −37%
SK-MEL-2; Log10 Concentration −6.0
  Percent Growth: 100%
SK-MEL-2; Log10 Concentration −7.0
  Percent Growth: 117%
SK-MEL-2; Log10 Concentration −8.0
  Percent Growth: 114%
LOX IMVI
  TGI: 3.07E−06
LOX IMVI; Log10 Concentration −5.0
  Percent Growth: −50%
LOX IMVI; Log10 Concentration −6.0
  Percent Growth: 48%
LOX IMVI; Log10 Concentration −7.0
  Percent Growth: 76%
LOX IMVI; Log10 Concentration −8.0
  Percent Growth: 105%
PC-3
  TGI: 2.38E−06
PC-3; Log10 Concentration −4.0
  Percent Growth: −55%
PC-3; Log10 Concentration −5.0
  Percent Growth: −77%
PC-3; Log10 Concentration −6.0
  Percent Growth: 47%
PC-3; Log10 Concentration −7.0
  Percent Growth: 69%
PC-3; Log10 Concentration −8.0
  Percent Growth: 89%
DU-145
  TGI: 3.47E−06
DU-145; Log10 Concentration −4.0
  Percent Growth: −60%
DU-145; Log10 Concentration −5.0
  Percent Growth: −76%
DU-145; Log10 Concentration −6.0
  Percent Growth: 90%
DU-145; Log10 Concentration −7.0
  Percent Growth: 109%
DU-145; Log10 Concentration −8.0
  Percent Growth: 105%
CCRF-CEM
  TGI: 2.49E−06
CCRF-CEM; Log10 Concentration −4.0
  Percent Growth: −34%
CCRF-CEM; Log10 Concentration −5.0
  Percent Growth: −43%
CCRF-CEM; Log10 Concentration −6.0
  Percent Growth: 28%
CCRF-CEM; Log10 Concentration −7.0
  Percent Growth: 81%
CCRF-CEM; Log10 Concentration −8.0
  Percent Growth: 74%
Immunoprecipitated Akt
  direct inhibitory effect on immunoprecipitated Akt activity: no appreciable direct inhibition
SK-OV-3
  TGI: 2.96E−06
SK-OV-3; Log10 Concentration −4.0
  Percent Growth: −24%
SK-OV-3; Log10 Concentration −5.0
  Percent Growth: −79%
SK-OV-3; Log10 Concentration −6.0
  Percent Growth: 71%
SK-OV-3; Log10 Concentration −7.0
  Percent Growth: 98%
SK-OV-3; Log10 Concentration −8.0
  Percent Growth: 91%

## N=C(N)Nc1ccc(-n2nc(C(F)(F)F)cc2-c2ccc3c(ccc4ccccc43)c2)cc1 [Compound 71, 4-[5-(2-Phenanthrenyl)-3-(trifluoromethyl)-1H-pyrazol-1-yl]-phenyl-guanidine]
COX-2
  COX-2 inhibitory activity: nor was any measurable COX-2 inhibitory activity detected
M14
  GI50: 1480 nM
  TGI: 2.80E−06
M14; Log10 Concentration −4.0
  Mean Optical Densities: 0.210
  Percent Growth: −33%
M14; Log10 Concentration −5.0
  Mean Optical Densities: −0.004
  Percent Growth: −100%
M14; Log10 Concentration −6.0
  Mean Optical Densities: 0.816
  Percent Growth: 81%
M14; Log10 Concentration −7.0
  Mean Optical Densities: 0.823
  Percent Growth: 82%
M14; Log10 Concentration −8.0
  Mean Optical Densities: 0.772
  Percent Growth: 74%
SK-MEL-28
  GI50: 1560 nM
  TGI: 2.89E−06
SK-MEL-28; Log10 Concentration −4.0
  Mean Optical Densities: 0.248
  Percent Growth: −53%
SK-MEL-28; Log10 Concentration −5.0
  Mean Optical Densities: −0.002
  Percent Growth: −100%
SK-MEL-28; Log10 Concentration −6.0
  Mean Optical Densities: 1.367
  Percent Growth: 86%
SK-MEL-28; Log10 Concentration −7.0
  Mean Optical Densities: 1.408
  Percent Growth: 90%
SK-MEL-28; Log10 Concentration −8.0
  Mean Optical Densities: 1.439
  Percent Growth: 93%
SK-MEL-2
  GI50: 1570 nM
  TGI: 2.91E−06
SK-MEL-2; Log10 Concentration −4.0
  Mean Optical Densities: 0.324
  Percent Growth: −29%
SK-MEL-2; Log10 Concentration −5.0
  Mean Optical Densities: −0.010
  Percent Growth: −100%
SK-MEL-2; Log10 Concentration −6.0
  Mean Optical Densities: 0.780
  Percent Growth: 87%
SK-MEL-2; Log10 Concentration −7.0
  Mean Optical Densities: 0.819
  Percent Growth: 97%
SK-MEL-2; Log10 Concentration −8.0
  Mean Optical Densities: 0.775
  Percent Growth: 85%
LOX IMVI
  GI50: 1340 nM
  TGI: 2.65E−06
LOX IMVI; Log10 Concentration −4.0
  Mean Optical Densities: 0.165
  Percent Growth: −53%
LOX IMVI; Log10 Concentration −5.0
  Mean Optical Densities: 0.008
  Percent Growth: −98%
LOX IMVI; Log10 Concentration −6.0
  Mean Optical Densities: 0.935
  Percent Growth: 72%
LOX IMVI; Log10 Concentration −7.0
  Mean Optical Densities: 1.033
  Percent Growth: 84%
LOX IMVI; Log10 Concentration −8.0
  Mean Optical Densities: 0.948
  Percent Growth: 73%
LOX IMVI; [1]
  CC50: 5220 nM
PC-3
  GI50: 1380 nM
  TGI: 2.67E−06
PC-3; Log10 Concentration −4.0
  Mean Optical Densities: 0.179
  Percent Growth: −26%
PC-3; Log10 Concentration −5.0
  Mean Optical Densities: −0.022
  Percent Growth: −100%
PC-3; Log10 Concentration −6.0
  Mean Optical Densities: 0.857
  Percent Growth: 75%
PC-3; Log10 Concentration −7.0
  Mean Optical Densities: 0.846
  Percent Growth: 73%
PC-3; Log10 Concentration −8.0
  Mean Optical Densities: 0.862
  Percent Growth: 75%
DU-145
  GI50: 1550 nM
  TGI: 2.89E−06
DU-145; Log10 Concentration −4.0
  Mean Optical Densities: −0.019
  Percent Growth: −100%
DU-145; Log10 Concentration −5.0
  Mean Optical Densities: −0.074
  Percent Growth: −100%
DU-145; Log10 Concentration −6.0
  Mean Optical Densities: 0.760
  Percent Growth: 85%
DU-145; Log10 Concentration −7.0
  Mean Optical Densities: 0.767
  Percent Growth: 87%
DU-145; Log10 Concentration −8.0
  Mean Optical Densities: 0.694
  Percent Growth: 72%
DU-145; [1]
  CC50: 5370 nM
CCRF-CEM
  GI50: 1230 nM
  TGI: 2.48E−06
CCRF-CEM; Log10 Concentration −4.0
  Mean Optical Densities: 0.140
  Percent Growth: −53%
CCRF-CEM; Log10 Concentration −5.0
  Mean Optical Densities: 0.002
  Percent Growth: −99%
CCRF-CEM; Log10 Concentration −6.0
  Mean Optical Densities: 0.718
  Percent Growth: 65%
CCRF-CEM; Log10 Concentration −7.0
  Mean Optical Densities: 0.811
  Percent Growth: 79%
CCRF-CEM; Log10 Concentration −8.0
  Mean Optical Densities: 0.808
  Percent Growth: 78%
CCRF-CEM; [1]
  CC50: 5000 nM
Immunoprecipitated Akt
  direct inhibitory effect on immunoprecipitated Akt activity: no appreciable direct inhibition
SK-OV-3
  GI50: 1430 nM
  TGI: 2.94E−06
SK-OV-3; Log10 Concentration −4.0
  Mean Optical Densities: 0.278
  Percent Growth: −30%
SK-OV-3; Log10 Concentration −5.0
  Mean Optical Densities: 0.062
  Percent Growth: −85%
SK-OV-3; Log10 Concentration −6.0
  Mean Optical Densities: 1.093
  Percent Growth: 75%
SK-OV-3; Log10 Concentration −7.0
  Mean Optical Densities: 1.245
  Percent Growth: 91%
SK-OV-3; Log10 Concentration −8.0
  Mean Optical Densities: 1.261
  Percent Growth: 93%
